Source: patent US20140128380A1, “METHODS OF MODULATING THE ACTIVITY OF THE MC1 RECEPTOR AND TREATMENT OF CONDITIONS RELATED TO THIS RECEPTOR” (Mimetica Pty Ltd, priority 2009, published 2014)

Target: T1, human MC1R (hMC1R) (Homo sapiens, UniProt Q01726)
T1 construct: purchased Perkin Elmer ES-195-M400UA
Test: Human MC1R radioligand binding assay (displacement of 125I-labeled NDP-MSH, Perkin Elmer hMC1R membranes)
Settings: displacement of [125I]NDP-MSH, compounds tested as trifluoroacetate or hydrochloride salts or free base
Procedure: Assessments of compound binding to human MC1R (hMC1R)) by displacement of an ^125I-labeled NDP-MSH receptor ligand peptide were performed essentially as described in the data sheets produced by Perkin Elmer to accompany their frozen hMC1R membranes (Perkin Elmer catalog number ES-195-M400UA).
[^125I] NDP-MSH: radiolabeled in house and purified by HPLC:
Na ^125I (0.5 mCi, 17.4 Ci/mg) was added to 50 μL sodium phosphate (50 mM, pH 7.4) in an eppendorf tube precoated with IODOGEN. After incubation for 10 mins the phosphate buffer containing the iodine was added to NDP-MSH (10 ul at 1 mg/mL) in a separate eppendorf tube. This was incubated for a further 10 mins. The iodinated NDP-MSH was purified by HPLC on a Zorbax SB 300 column using solvent A: 0.05% TFA and solvent B: 90% acetonitrile 0.045% TFA with a linear gradient, 0-67% B over 60 mins.
Perkin Elmer frozen hMC1 membranes: catalog number ES-195-M400UA, 0.4 mL/vial; 400 microassays/vial, 0.78 mg/mL protein concentration
Vials of frozen membranes were thawed rapidly immediately before use, diluted with binding buffer and vortexed. Resuspended membranes were kept on ice until they were added to the wells of the plate.
Assays were performed in 96 well polypropylene plates. […] This was incubated for 1 hr at 37° C.

T1 sequence (Q01726 whole entry): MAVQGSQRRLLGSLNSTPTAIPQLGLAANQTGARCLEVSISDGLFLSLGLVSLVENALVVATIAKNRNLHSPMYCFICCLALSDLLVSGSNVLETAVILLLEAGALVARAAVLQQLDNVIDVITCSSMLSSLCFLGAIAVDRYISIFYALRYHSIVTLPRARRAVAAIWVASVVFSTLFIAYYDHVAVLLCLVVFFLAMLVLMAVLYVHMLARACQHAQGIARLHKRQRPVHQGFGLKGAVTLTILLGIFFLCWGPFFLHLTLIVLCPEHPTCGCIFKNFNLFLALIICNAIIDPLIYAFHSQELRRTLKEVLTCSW

IC50 [µM]	Structure (SMILES)
< 10	N=C(N)NCCC[C@@H]1N[C@H](CNC(=O)c2cc3ccccc3[nH]2)CCN(CC(c2ccccc2)c2ccccc2)C1=O [Compound 113, N-(((3S,5S)-1-(2,2-diphenylethyl)-3-(3-guanidinopropyl)-2-oxo-1,4-diazepan-5-yl)methyl)-1H-indole-2-carboxamide]
< 10	O=C(NC[C@@H]1CCN(CC(c2ccccc2)c2ccccc2)C(=O)[C@H](CCN2CCCCC2)N1)c1cc(-c2ccc(Cl)cc2)on1 [Compound 162, 5-(4-chlorophenyl)-N-(((3S,5S)-1-(2,2-diphenylethyl)-2-oxo-3-(2-(piperidin-1-yl)ethyl)-1,4-diazepan-5-yl)methyl)isoxazole-3-carboxamide]
< 10	COc1c(C(=O)NC[C@@H]2CCN(CC(c3ccccc3)c3ccccc3)C(=O)[C@H](CCCNC(=N)N)N2)ccc2ccccc12 [Compound 115, N-(((3S,5S)-1-(2,2-diphenylethyl)-3-(3-guanidinopropyl)-2-oxo-1,4-diazepan-5-yl)methyl)-1-methoxy-2-naphthamide]
< 10	NCC[C@@H]1N[C@H](CNC(=O)/C=C/c2ccc(Cl)cc2)CCN(Cc2cc(Cl)cc(Cl)c2)C1=O [Compound 141, (E)-N-(((3S,5S)-3-(2-aminoethyl)-1-(3,5-dichlorobenzyl)-2-oxo-1,4-diazepan-5-yl)methyl)-3-(4-chlorophenyl)acrylamide]
< 10	NCCC[C@@H]1N[C@H](CNC(=O)c2ccc(Cl)c(Cl)c2)CCN(CC(c2ccccc2)c2ccccc2)C1=O [Compound 123]
< 10	O=C(/C=C/c1ccc(Cl)cc1)NC[C@@H]1CCN(CC(c2ccccc2)c2ccccc2)C(=O)[C@H](CN2CCCCC2)N1 [Compound 134, (E)-3-(4-chlorophenyl)-N-(((3S,5S)-1-(2,2-diphenylethyl)-2-oxo-3-(piperidin-1-ylmethyl)-1,4-diazepan-5-yl)methyl)acrylamide]
< 10	CC1CC(C)CC(CN2CC[C@@H](CNC(=O)c3ccc4ccccc4c3)N[C@@H](CCCNC(=N)N)C2=O)C1 (stereo partly drawn) [Compound 139, N-(((3S,5S)-1-((3,5-dimethylcyclohexyl)methyl)-3-(3-guanidinopropyl)-2-oxo-1,4-diazepan-5-yl)methyl)-2-naphthamide]
< 10	CNC(=O)[C@H](Cc1ccc2ccccc2c1)N1CC[C@H]2CN(Cc3ccc(F)cc3)C(=O)N2[C@@H](CCCNC(=N)N)C1=O [Compound 142, (S)-2-((5S,9aS)-2-(4-fluorobenzyl)-5-(3-guanidinopropyl)-3,6-dioxotetrahydro-1H-imidazo[1,5-d][1,4]diazepin-7(8H,9H,9aH)-yl)-N-methyl-3-(naphthalen-2-yl)propanamide]
< 10	O=C(/C=C/c1ccc(Cl)cc1)NC[C@@H]1CCN(Cc2cc(Cl)cc(Cl)c2)C(=O)[C@H](CN2CCCCC2)N1 [Compound 152, (E)-3-(4-chlorophenyl)-N-(((3S,5S)-1-(3,5-dichlorobenzyl)-2-oxo-3-(piperidin-1-ylmethyl)-1,4-diazepan-5-yl)methyl)acrylamide]
< 10	O=C(/C=C/c1ccc(F)cc1)NC[C@@H]1CCN(CC(c2ccccc2)c2ccccc2)C(=O)[C@H](CCCNC2CCCCC2)N1 [Compound 127, (E)-N-(((3S,5S)-3-(3-(cyclohexylamino)propyl)-1-(2,2-diphenylethyl)-2-oxo-1,4-diazepan-5-yl)methyl)-3-(4-fluorophenyl)acrylamide]
< 10	NCC[C@@H]1N[C@H](CNC(=O)c2ccc(Cl)c(Cl)c2)CCN(CC(c2ccccc2)c2ccccc2)C1=O [Compound 135, N-(((3S,5S)-3-(2-aminoethyl)-1-(2,2-diphenylethyl)-2-oxo-1,4-diazepan-5-yl)methyl)-3,4-dichlorobenzamide]
< 10	N=C(N)NCCC[C@@H]1N[C@H](CNC(=O)c2ccc3ccccc3c2)CCN(CCC2CC3CCC2C3)C1=O (stereo partly drawn) [Compound 131, N-(((3S,5S)-1-(2-(bicyclo[2.2.1]heptan-2-yl)ethyl)-3-(3-guanidinopropyl)-2-oxo-1,4-diazepan-5-yl)methyl)-2-naphthamide]
